Tested on: Male Sprague Dawley rats
Experiment: Hypocalcaemic activity in rats (total serum calcium after i.v. injection)
Format: in vivo, rat
Conditions: fasted rats, blood sampled one hour after dosing, VEHICLE 10.49 + 0.6
Description: The hypocalcaemic activity of compounds (I) can be determined as reported for example in J. Endocrinology, 33, 469 (1965).
Male Sprague Dawley rats, about 4 weeks old, were kept under fasting conditions for 24 hours. The compounds were dissolved with BSA buffer (0.1% bovine serum albumin on 0.1M acetate buffer pH 4.5) and injected by the i.v. route into the lateral tail vein at doses of 3-10-30-100 ng/Kg. One hour after the dosing blood was sampled from the tail or neck vessels, then the serum samples obtained.
The serum was diluted with 0.1% lanthanium chloride solution and the concentration of total calcium was determined by Atomic Absorption Spectrophotometry.

CC(C)C[C@H](NC(=O)[C@H](CCCCN)NC(=O)CNC(=O)[C@H](CC(C)C)NC(=O)[C@@H](NC(=O)[C@@H]1CC#CCCC(=O)N[C@@H](CO)C(=O)N[C@@H](CC(N)=O)C(=O)N[C@@H](CC(C)C)C(=O)N[C@@H](CO)C(=O)N[C@@H]([C@@H](C)O)C(=O)N1)C(C)C)C(=O)N[C@@H](CO)C(=O)N[C@@H](CCC(N)=O)C(=O)N[C@@H](CCC(=O)O)C(=O)N[C@@H](CC(C)C)C(=O)N[C@@H](Cc1c[nH]cn1)C(=O)N[C@@H](CCCCN)C(=O)N[C@@H](CC(C)C)C(=O)N[C@@H](CCC(N)=O)C(=O)N[C@H](C(=O)N[C@@H](Cc1ccc(O)cc1)C(=O)N1CCC[C@H]1C(=O)N[C@@H](CCCNC(=N)N)C(=O)N[C@H](C(=O)N[C@@H](C)C(=O)N[C@H](C(=O)NCC(=O)N[C@@H](C)C(=O)NCC(=O)N[C@H](C(=O)N1CCC[C@H]1C(N)=O)[C@@H](C)O)C(C)C)[C@@H](C)O)[C@@H](C)O [Example 4]
Total serum calcium; mean + S.D. (Dose 3 ng/kg i.v. (lateral tail vein)): 10.09±0.1 mg/100 ml | Total serum calcium; mean + S.D. (Dose 10 ng/kg i.v. (lateral tail vein)): 8.85±0.25 mg/100 ml | Total serum calcium; mean + S.D. (Dose 30 ng/kg i.v. (lateral tail vein)): 7.92±0.15 mg/100 ml | Total serum calcium; mean + S.D. (Dose 100 ng/kg i.v. (lateral tail vein)): 7.66±0.18 mg/100 ml
